Assay results published in US11446294B2, “Non-platinum-based anti-cancer compounds for use in targeted chemotherapy” (priority 2013, dated 2022).
“Also recorded” adds a separate entry of the source.

Tests used:
[1] = test system: cisplatin-resistant human ovarian cancer (NIH:OVCAR-3, HTB-161) cells; experiment: MTT cell viability, HTB-161; type: cell-based; conditions: HTB-161, 96-hr treatment
Experimental: (§1) The complete growth media for ME-180, NIH:OVCAR-3, A549 and MDA-MB-231 cells were the ATCC-formulated McCoy's 5A Medium supplemented with 10% FBS, RPMI 1640 medium with 20%, F-12K medium with 10% FBS, and L-15 Medium (Leibovitz) with 10% FBS, respectively.
(§2) The MTT assay of cell viability was then conducted.

[2] = test system: human cervical cancer (ME-180) cells; experiment: MTT cell viability, ME-180; type: cell-based; conditions: ME-180, 96-hr treatment
Experimental: as §1, §2

[3] = test system: human breast cancer (MDA-MB-231) cells; experiment: MTT cell viability, MDA-MB-231; type: cell-based; conditions: MDA-MB-231, 96-hr treatment
Experimental: as §1, §2

[4] = test system: human lung cancer (A549) cells; experiment: MTT cell viability, A549; type: cell-based
Experimental: as §1, §2

[5] = test system: human normal cells (GM05757); experiment: MTT cell viability, human normal cells (toxicity); conditions: for toxicity to human normal cells (cell survival rate): GM05757, 96-hr treatment, up to 200 μM
Experimental: A human skin diploid fibroblast (GM05757 cell line) was obtained from the Coriell Cell Repository directly. Fetal bovine serum (FBS) was obtained from Hyclone Laboratories (UT, USA). The GM05757 normal cells were cultivated with MEM (Hyclone) supplemented with 10% FBS, 100 units/mL penicillin G and 100 μg/mL streptomycin (Hyclone). The cells were maintained at 37° C. in a humidified atmosphere containing 5% CO2.
The toxic effects of NPBs on cell viability were determined by the 3-[4,5-dimethylthiazol-2-yl]-2,5-diphenyl tetrazoliumbromide (MTT) assay. Cells were cultured in 96-well plates (5×10^3 cells/well) for 24 h. The culture medium was replaced by fresh culture medium and incubated for 72 or 96 h with varying drug concentrations. The MTT assay of cell viability was then conducted. Briefly, 100 μl new medium without phenol red containing 1.2 mM MTT (sigma) (i.e., adding 10 μl 12 mM MTT stock solution in PBS) were added to each well and incubated for 4 h. The medium was then removed, and the formazan crystals solubilized by 100 μL/well DMSO (or alternatively by 100 μl/well SDS and incubated for another 4 h). The surviving fraction was determined by measuring the absorbance at 540 nm (570 nm for SDS solubilization) using a Multiskan Spectrum UV/Vis microplate reader (Thermo Scientific), which is directly proportional to the number of viable cells.

[6] = test system: human cervical cancer (HeLa) cells; experiment: MTT cell viability, HeLa; type: cell-based; conditions: 96-hr treatment
[7] = fs-TRLS observation of DET reaction with a weakly-bound electron; conditions: pump 350 nm, probe 400 nm; for DET reaction with weakly-bound electron ewb−: identical conditions
From the text: Femtosecond (fs) time-resolved laser spectroscopy (fs-TRLS) is the most versatile and powerful technique for real-time observation of molecular reactions. It uses laser flashes of such short duration that we are down to the time scale on which the reactions actually happen—femtoseconds (fs) (1 fs=10^−15 seconds). […] For the latter, briefly our fs laser amplifier system (Spectra-Physics, Spitfire) produced laser pulses with a pulse width of 100-120 fs at a repetition rate of 500 Hz. A intense pump pulse at 350 nm was used to generate a weakly-bound electron (ewb^−) by 2-photon excitation of a H2O molecule into a higher energy state H2O* that then ionizes to produce an ewb^−; a probe pulse at 400 nm coming at certain delay was used to monitor the DET reaction with the electron by detecting transient absorbance of the reaction intermediate anion state.

[8] = test system: human cervical cancer (ME-180) cells; experiment: CellEvent Caspase-3/7 apoptosis assay by fluorescence microscopy; type: cell-based; conditions: 48 h
From the text: Human cervical cancer (ME-180) cells were purchased from the American Type Culture Collection (ATCC).
The CellEvent™ Caspase-3/7 Green Detection Kit (Invitrogen) was used for the detection of activated caspases and apoptotic cells following the vendor's protocol. This kit provides a […] specific for caspase-3 and -7; the cells show green fluorescence for activated caspase-3 and -7. The reagent consists of a four amino acid peptide (DEVD) conjugated to a nucleic acid binding dye. This cell-permeant substrate is intrinsically non-fluorescent, because the DEVD peptide inhibits the ability of the dye to bind to DNA. After activation of caspase-3 or caspase-7 in apoptotic cells, the DEVD peptide is cleaved, enabling the dye to bind to DNA and produce green fluorescence. Briefly, to use the CellEvent™ Caspase-3/7 Green Detection Reagent, add the substrate to the cells in complete growth medium, incubate for 30 minutes, and image. […] Because the cleaved reagent labels nuclei of caspase 3/7-positive cells, this stain can also provide information on nuclear morphology, including condensed nuclei typical of late-stage apoptosis. ME-180 cells were grown to 60% confluence and then treated with 0-200 μM compound B for 48 h. The fluorescence was detected with a Nikon Eclipse TS100 microscope. Images were captured with an attached camera.

[9] = test system: human cervical cancer (ME-180) tumor; experiment: Xenograft mouse model of human cervical cancer (ME-180); type: in vivo, SCID mice; conditions: 7 mg/kg daily for 5 days, IP
Experimental: The two groups in the experiment were: (1) control article (5% EtOH/medium); (2) Compound B at 7 mg/kg in 5% EtOH/medium daily for 5 days, as shown in Table 1.
(§3) 6-8 week SCID mice were used in this study; Compound B as an exemplary NPB was dissolved in 5% EtOH: 95% cell culture medium (≈1:20).
ME-180 (human cervical cancer) cells were cultured in the ATCC-formulated McCoy's 5A Medium supplemented with 10% FBS. […] The cells were rinsed with PBS, trypsined for detachment from the bottom of the flask, mixed with fresh growth medium, and centrifuged to remove the supernatant. The cells were re-suspend with fresh medium to appropriate concentration for s.c. injection into the mice. Injection volume was 50 μl (1.5×10^6 cells) per animal.
ME-180 tumour cells were subcutaneously into female SCID mice (age 6-8 weeks) in a volume of 50 μL into the left flank using a 27-gauge needle. This was established as a subcutaneous (SC) xenograft mouse model of human cervical cancer.
(§4) Mice were individually weighed and injected intraperitoneally according to body weight for an injection concentration as outlined in the study group table above. The injection volume was based on 200 μL per 20 g mouse. The skin surface was wiped down with 70% isopropyl alcohol to clean the injection site.
Tumor size was measured as a function of time to assess tumor growth delay associated with treatment using slide caliper. […]

[10] = test system: human cervical cancer (ME-180) cells; experiment: γH2AX DNA damage assay (DNA double-strand breaks); type: cell-based; conditions: ME-180, 12 h treatment
Experimental: The γH2AX DNA damage assay (Invitrogen) was used to detect DSBs of genomic DNA in cancer cells. The phosphorylated H2AX foci are a biomarker of DNA DSB. DNA DSBs are measured by specific antibody-based detection of phosphorylated H2AX (γH2AX) in the nucleus. Briefly, the human cervical cancer (ME-180) cells were treated with different concentrations of compound B for 12 h under the cell culture conditions described above. Then following the detailed experimental procedures described in the Protocol provided by the manufacturer, we performed the HCS DNA Damage Assay of the treated cells. The images of cells were acquired with a Nikon Eclipse TS100 fluorescence microscope; quantitative analyses of activated γ-H2AX (DNA DBS yield) in the cells were performed using an Image J software.

[11] = In vivo toxicity in SCID mice
Experimental: The two groups (five 6-8 week SCID mice/group) in the experiment were: (1) control article (in 5% EtOH/medium); and (2) Compound B 7 mg/kg in 5% EtOH/medium, as shown in Table 2. Compound B was injected IP every day for 5 days.
as §3
as §4, with “6-8 week SCID Mice” for “Mice”, “intraperitoneally (IP)” for “intraperitoneally”, “above. Compound B was administered by IP injection into mice at 0, and 7 mg/kg daily for 5 days.” for “above.”
The overall drug toxicity in mice was observed by a survival assay and body weight measurements, and the acute drug toxicity was measured by blood collection and histology. The hepatotoxicity (ALT, ALP, total bilirubin), nephrotoxicity (blood urea, creatinine), and electrolytes (Na, K, Cl) were analyzed by biochemical methods or HPLC-mass spectroscopy. […] Blood samples were collected from the saphenous vein at various time points after drug injection. At the end of the study, whole organs were harvested in order to assess liver, and kidney toxicity.
All animals were observed post administration, and at least once a day, more if deemed necessary, during the pre-treatment and treatment periods for mortality and morbidity. In particular, animals were monitored for signs of ill health such as body weight loss, change in appetite, behavior changes such as altered gait, lethargy and gross manifestations of stress.

[12] = mouse, in vivo, ip, 7 mg/kg/day

bromo-(1,2-)diamino-benzene [Compound D]
cell survival rate (killing of cisplatin-resistant cancer cells) [1]: significant killing | cell survival rate (killing of cancer cells) [2]: significant killing | cell survival rate (killing of cancer cells) [3]: significant killing | cell survival rate (killing of cancer cells) ([4]; A549, 96 hr treatment): significant killing | toxicity to human normal cells (cell survival rate) [5]: essentially no toxicity; also recorded: little toxicity | cell survival rate (killing of cancer cells) [6]: significant killing

O=c1[nH]c(=O)n([C@H]2C[C@H](O)[C@@H](CO)O2)cc1Br [BrdU, bromodeoxyuridine]
DET reaction with weakly-bound electron ewb− [7]: no DET reactions detected; also recorded: negligible; also recorded: no DET reaction

O=c1[nH]c(=O)n([C@H]2C[C@H](O)[C@@H](CO)O2)cc1I [IdU, iododeoxyuridine]
DET reaction with weakly-bound electron ewb− [7]: no DET reactions detected; also recorded: negligible; also recorded: no DET reaction

Nc1cc(Br)c(Br)cc1N [Compound B, 4,5-dibromo-1,2-phenylenediamine]
activation of caspase-3 and -7 ([8]; ME-180, 0-200 μM): significant activation | population of apoptotic cells ([8]; ME-180, 200 μM): ≥ 60% | cell survival rate (killing of cisplatin-resistant cancer cells) [1]: significant killing | tumor growth vs control group [9]: significantly suppressed tumor growth | cell survival rate (killing of cancer cells) [2]: significant killing | yield of DNA double-strand breaks (γ-H2AX intensity) [10]: significant amount of DNA DSBs | cell survival rate (killing of cancer cells) [3]: significant killing | dissociative lifetime of NPB*− ([7]; ethanol): ~6.0 ps | DET reaction with weakly-bound electron ewb− [7]: highly effective | cell survival rate (killing of cancer cells) ([4]; A549, 96 hr treatment): significant killing | toxicity to human normal cells (cell survival rate) [5]: essentially no toxicity; also recorded: little toxicity | cell survival rate (killing of cancer cells) [6]: significant killing | overall toxicity ([11]; 7 mg/kg daily for 5 days, IP): no overall drug toxicity | electrolytes (Na, K, Cl) [11, 12]: no changes in electrolytes | hepatotoxicity (ALT, ALP, total bilirubin) [11, 12]: no hepatotoxicity | nephrotoxicity (blood urea, creatinine) [11, 12]: no nephrotoxicity

Nc1cc(Cl)c(Cl)cc1N [Compound A, 4,5-dichloro-1,2-phenylenediamine]
cell survival rate (killing of cisplatin-resistant cancer cells) [1]: significant killing | cell survival rate (killing of cancer cells) [2]: significant killing | cell survival rate (killing of cancer cells) [3]: significant killing | cell survival rate (killing of cancer cells) ([4]; A549, 96 hr treatment): significant killing | toxicity to human normal cells (cell survival rate) [5]: essentially no toxicity; also recorded: little toxicity | cell survival rate (killing of cancer cells) [6]: significant killing

Nc1cc(I)c(I)cc1N [Compound C, 4,5-diiodo-1,2-phenylenediamine]
cell survival rate (killing of cisplatin-resistant cancer cells) [1]: significant killing | cell survival rate (killing of cancer cells) [3]: significant killing | cell survival rate (killing of cancer cells) ([4]; A549, 72 hr treatment): significant killing | toxicity to human normal cells (cell survival rate) [5]: essentially no toxicity; also recorded: little toxicity | cell survival rate (killing of cancer cells) [6]: significant killing

cis-Pt(NH3)2Cl2 [cisplatin, reference compound]
IC50 ([5]; read-out: IC50 (cell survival rate 50% with respect to untreated cells), GM05757, 72-hr treatment): ~10 µM
